According to patent US9206134B2, “Polymorphic forms of compounds as prolyl hydroxylase inhibitor, and uses thereof” (BEIJING BETTA PHARMACEUTICALS CO. LTD., priority 2011, dated 2015):

Tests used:
[1] = Stability determination of crystal forms (competitive slurry in isopropyl acetate); type: physicochemical; conditions: Forms IV and VI stirred together in isopropyl acetate solution of compound of Formula I, room temperature, 36 hrs; resulted crystal form purely Form VI
Protocol: 9.6 mg of the Crystalline Form IV and 1.97 mg of the Crystalline Form VI disclosed in this invention were then added into the solution and stirred at room temperature for 36 hrs. After centrifugation and drying, the resulted crystal form was determined to be purely the Crystalline Form VI.

Erythropoietin (EPO) = Erythropoietin (EPO) induction in normal mice; type: in vivo; conditions: male C57BL/6 mice, oral suspension in 0.5% CMC, serum 6 hours after dosing
Protocol: Eight-week-old male C57BL/6 mice were dosed orally with a suspension of one crystal form of the compound in 0.5% CMC at 20, 60 and 100 mg/kg. Blood samples were obtained from the orbital venous plexus 6 hours after dosing and serum was collected (see also, Robinson A, et al., Gastroenterology. 2008, 134:145-55; Hsieh M M, et al., Blood. 2007, 110:2140-7). Samples were analyzed for EPO by electrochemiluminescence-based immunoassay (MSD) according to manufacturer's instructions. The inducted EPOs when the Crystalline Form VI in this invention was used in suspension were determined to be around 6, 297 and above 300 folds over that of the vehicle group without induction.

In the case of Cc1nc(C(=O)NCC(=O)O)c(O)c2ccc(Oc3ccccc3)cc12 [Crystalline Form VI], the “thermodynamic stability of crystal form” value [1] was “thermodynamically the most stable crystal form”, the “inducted EPO over that of the vehicle group” value (“inducted EPO over that” for short) (Erythropoietin (EPO); 20 mg/kg) was “around 6 folds” and the “inducted EPO over that” value (Erythropoietin (EPO); 60 mg/kg) was ~297 folds. For the same molecule, the “inducted EPO over that” value (Erythropoietin (EPO); 100 mg/kg) was “above 300 folds”.
